{
  "source": "paper PMC4012739",
  "about": "“Targeted inhibition of cell-surface serine protease Hepsin blocks prostate cancer bone metastasis” (Oncotarget, 2014)",
  "biological_target": "T1, Hepsin (Homo sapiens, UniProt P05981)",
  "T1 construct": "gene HPN; Extracellular part of human Hepsin (amino acids 45-417), SRCR and trypsin-like serine protease domains",
  "T1 sequence (P05981 45-162)": "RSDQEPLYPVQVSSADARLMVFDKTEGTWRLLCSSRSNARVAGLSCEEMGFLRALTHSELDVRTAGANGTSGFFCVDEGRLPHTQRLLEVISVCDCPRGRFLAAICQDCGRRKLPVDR",
  "T1 sequence (P05981 163-417)": "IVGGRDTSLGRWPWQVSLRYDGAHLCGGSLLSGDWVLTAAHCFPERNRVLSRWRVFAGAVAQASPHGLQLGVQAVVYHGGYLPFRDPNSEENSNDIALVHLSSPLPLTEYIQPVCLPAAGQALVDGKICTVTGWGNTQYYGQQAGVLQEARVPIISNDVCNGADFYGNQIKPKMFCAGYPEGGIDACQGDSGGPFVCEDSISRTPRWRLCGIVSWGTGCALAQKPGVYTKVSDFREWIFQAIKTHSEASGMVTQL",
  "assay": "chromogenic peptide (pyroGlu-Pro-Arg-pNA) protease assay with purified recombinant Hepsin; also pro-HGF cleavage",
  "format": "biochemical",
  "note": "pIC50: −log10 of the molar value.",
  "data": [
    {"smiles": "Brc1ccc(C2Nc3cccc4cccc(c34)N2)cc1", "note": "[HepIn-13]", "values": [
      {"measurement": "pIC50", "result": 6.48}
    ]}
  ]
}
